Assay results from US20230181536A1, “ANTICANCER COMBINATION THERAPY WITH N-(1-ACRYLOYL-AZETIDIN-3-YL)-2-((1H-INDAZOL-3-YL)AMINO)METHYL)-1H-IMIDAZOLE-5-CARBOXAMIDE INHIBITOR OF KRAS-G12C” (TAIHO PHARMACEUTICAL CO., LTD., priority 2020, published 2023).

Each molecule was assayed against T1, KRAS G12C (Homo sapiens, UniProt P01116, G12C) (assay: Inhibitory activity on the KRAS G12C nucleotide (GDP-GTP) exchange reaction). Conditions: Bodipy FL GDP-bound KRAS G12C 25 nM; preincubation at 25° C. for 4 hours; SOS1 100 nM, GppNHp 1 μM, reaction for 30 minutes.
T1 construct: KRAS G12C (amino acid region: 1-169)
Assay type: biochemical
Procedure, shortened: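 Bodipy FL-GDP-loaded KRAS G12C (aa 1-169, 25 nM) preincubated with compound 4 h at 25 °C in pH 7.5 Tris buffer, 5% DMSO; exchange started with SOS1 (aa 564-1049, 100 nM) and 1 μM GppNHp for 30 min. Fluorescence change (ex 485/em 520 nm) normalized to DMSO and no-GppNHp controls; IC50 calculated.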

T1 sequence (P01116 1-169 isoform P01116-2 G12C): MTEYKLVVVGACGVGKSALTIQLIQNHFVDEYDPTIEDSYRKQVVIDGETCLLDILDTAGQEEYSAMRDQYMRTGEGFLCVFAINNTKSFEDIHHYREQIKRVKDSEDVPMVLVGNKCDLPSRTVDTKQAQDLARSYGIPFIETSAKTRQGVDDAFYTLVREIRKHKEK

Q: With C=CC(=O)N1C[C@H](NC(=O)c2c(C)nc(CNc3n[nH]c4cc(Cl)c(C(C)(C)C)cc34)n2C)[C@@H](F)C1 [Example 64, N-((3S,4S)-1-acryloyl-4-fluoropyrrolidin-3-yl)-2-(((5-(tert-butyl)-6-chloro-1H-indazol-3-yl)amino)methyl)-1,4-dimethyl-1H-imidazole-5-carboxamide] as the molecule, how does the IC50 read?
A: The IC50 was 13 nM.

Q: Which IC50 does the source give for C=CC(=O)N1C[C@@H](CC#N)[C@@H](NC(=O)c2c(C)nc(CNc3n[nH]c4cc(Cl)c(C(C)(C)C)cc34)n2C)C1 [Example 65, N-((3R,4R)-1-acryloyl-4-(cyanomethyl)pyrrolidin-3-yl)-2-(((5-(tert-butyl)-6-chloro-1H-indazol-3-yl)amino)methyl)-1,4-dimethyl-1H-imidazole-5-carboxamide] here?
A: Its IC50 is 19 nM.

Q: How did the IC50 turn out when C=CC(=O)N1C[C@@H](CF)[C@@H](NC(=O)c2c(C)nc(CNc3n[nH]c4cc(Cl)c(C(C)(C)C)cc34)n2C)C1 [Example 66, N-((3R,4R)-1-acryloyl-4-(fluoromethyl)pyrrolidin-3-yl)-2-(((5-(tert-butyl)-6-chloro-1H-indazol-3-yl)amino)methyl)-1,4-dimethyl-1H-imidazole-5-carboxamide] was run?
A: Its IC50 is 20 nM.

Q: Which IC50 does the source give for C=CC(=O)N1C[C@@H](COC)[C@@H](NC(=O)c2c(C)nc(CNc3n[nH]c4cc(Cl)c(C(C)(C)C)cc34)n2C)C1 [Example 67, N-((3R,4R)-1-acryloyl-4-(methoxymethyl)pyrrolidin-3-yl)-2-(((5-(tert-butyl)-6-chloro-1H-indazol-3-yl)amino)methyl)-1,4-dimethyl-1H-imidazole-5-carboxamide] here?
A: The IC50 was 24 nM.

Q: How did the IC50 turn out when C=CC(=O)N1C[C@@H](CN(C)C)[C@@H](NC(=O)c2c(C)nc(CNc3n[nH]c4cc(Cl)c(C(C)(C)C)cc34)n2C)C1 [Example 68, N-((3R,4R)-1-acryloyl-4-((dimethylamino)methyl)pyrrolidin-3-yl)-2-(((5-(tert-butyl)-6-chloro-1H-indazol-3-yl)amino)methyl)-1,4-dimethyl-1H-imidazole-5-carboxamide] was run?
A: The IC50 was 99 nM.

Q: C=CC(=O)N1C[C@@H](CC)[C@@H](NC(=O)c2c(C)nc(CNc3n[nH]c4cc(Cl)c(C(C)(C)C)cc34)n2C)C1 [Example 69, N-((3R,4R)-1-acryloyl-4-ethylpyrrolidin-3-yl)-2-(((5-(tert-butyl)-6-chloro-1H-indazol-3-yl)amino)methyl)-1,4-dimethyl-1H-imidazole-5-carboxamide] was tested. Which IC50 did it give?
A: The IC50 was 6650 nM.

Q: For C=CC(=O)N1C[C@H](NC(=O)c2c(C(F)F)nc(CNc3n[nH]c4cc(Cl)c(C(C)(C)C)cc34)n2C)[C@@H](F)C1 [Example 70, N-((3S,4S)-1-acryloyl-4-fluoropyrrolidin-3-yl)-2-(((5-(tert-butyl)-6-chloro-1H-indazol-3-yl)amino)methyl)-4-(difluoromethyl)-1-methyl-1H-imidazole-5-carboxamide], which IC50 is on record?
A: Its IC50 is 79 nM.

Q: For C=CC(=O)N1C[C@@H](C)[C@@H](NC(=O)c2c(C(F)F)nc(CNc3n[nH]c4cc(Cl)c(C(C)(C)C)cc34)n2C)C1 [Example 71, N-((3R,4R)-1-acryloyl-4-methylpyrrolidin-3-yl)-2-(((5-(tert-butyl)-6-chloro-1H-indazol-3-yl)amino)methyl)-4-(difluoromethyl)-1-methyl-1H-imidazole-5-carboxamide], which IC50 is on record?
A: The IC50 was 117 nM.

Q: How did the IC50 turn out when C=CC(=O)N1CC[C@@H](NC(=O)c2c(F)nc(CNc3n[nH]c4cc(Cl)c(C(C)(C)C)cc34)n2C)C1 [Example 72, (R)-N-(1-acryloylpyrrolidin-3-yl)-2-(((5-(tert-butyl)-6-chloro-1H-indazol-3-yl)amino)methyl)-4-fluoro-1-methyl-1H-imidazole-5-carboxamide] was run?
A: Its IC50 is 71 nM.

Q: C=CC(=O)N1CC[C@@H](NC(=O)c2c(Cl)nc(CNc3n[nH]c4cc(Cl)c(C(C)(C)C)cc34)n2C)C1 [Example 73, (R)-N-(1-acryloylpyrrolidin-3-yl)-2-(((5-(tert-butyl)-6-chloro-1H-indazol-3-yl)amino)methyl)-4-chloro-1-methyl-1H-imidazole-5-carboxamide] was tested. Which IC50 did it give?
A: Its IC50 is 52 nM.
